Where “and” joins values, the source holds several entries; their conditions need not be identical. Identical values can stand only once. Like-named read-outs stand apart in the source and are kept apart here.
How the values were obtained:
HL-60 leukemia cells = assay: In vitro cell viability assay (intracellular ATP, 72 hour); type: cell-based; conditions: HL-60 (TB) (Leukemia); 10 μM
Histamine H4 = molecular target: T1, Histamine H4 (Homo sapiens, UniProt Q9H3N8); assay: Histamine H4 radio ligand binding
T1 construct: expressed in transfected cells; host or cells: Chem-1 cells
T1 sequence (Q9H3N8 whole entry): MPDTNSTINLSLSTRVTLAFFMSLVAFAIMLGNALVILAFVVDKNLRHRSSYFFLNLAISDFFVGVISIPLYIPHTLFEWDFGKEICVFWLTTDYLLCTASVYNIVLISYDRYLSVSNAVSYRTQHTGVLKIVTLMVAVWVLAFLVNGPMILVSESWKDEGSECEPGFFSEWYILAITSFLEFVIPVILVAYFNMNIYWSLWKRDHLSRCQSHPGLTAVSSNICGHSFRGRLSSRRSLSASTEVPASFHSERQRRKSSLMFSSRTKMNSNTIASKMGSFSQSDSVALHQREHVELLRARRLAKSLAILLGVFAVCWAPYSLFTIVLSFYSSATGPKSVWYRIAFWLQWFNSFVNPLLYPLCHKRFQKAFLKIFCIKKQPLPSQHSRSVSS
Method: (§1) The in vitro pharmacological studies were conducted by Eurofins PanLab (Taiwan) using the parameters shown in Table 13 with respect to appropriate literature references.

Monoamine Oxidase MAO-A = molecular target: T2, Monoamine Oxidase MAO-A (Homo sapiens, UniProt P21397); assay: Monoamine Oxidase MAO-A; type: biochemical; conditions: for remaining activity at 10 µM: read-out: % Control Response
T2 construct: host or cells: Insect Hi5 cells
T2 sequence (P21397 1-527): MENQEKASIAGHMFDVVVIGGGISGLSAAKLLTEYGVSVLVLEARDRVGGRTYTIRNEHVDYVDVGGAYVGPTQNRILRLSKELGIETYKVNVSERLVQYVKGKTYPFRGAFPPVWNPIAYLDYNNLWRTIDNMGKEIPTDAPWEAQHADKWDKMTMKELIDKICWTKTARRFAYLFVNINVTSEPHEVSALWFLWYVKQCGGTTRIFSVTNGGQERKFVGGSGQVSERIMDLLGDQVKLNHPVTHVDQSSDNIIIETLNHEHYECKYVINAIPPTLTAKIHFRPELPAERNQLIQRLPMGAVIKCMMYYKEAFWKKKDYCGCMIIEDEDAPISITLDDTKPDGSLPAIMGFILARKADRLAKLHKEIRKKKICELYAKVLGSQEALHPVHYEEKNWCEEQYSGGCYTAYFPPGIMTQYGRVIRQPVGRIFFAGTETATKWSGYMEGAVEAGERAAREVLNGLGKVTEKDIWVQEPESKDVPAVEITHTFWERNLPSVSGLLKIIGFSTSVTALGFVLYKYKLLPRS

Chemokine CCR1 = molecular target: T3, Chemokine CCR1 (Homo sapiens, UniProt P32246); assay: Chemokine CCR1 radio ligand binding; conditions: assay year 2015, read-out: % Control Response
T3 construct: expressed in transfected cells; host or cells: Chem-2 cells
T3 sequence (P32246 1-355): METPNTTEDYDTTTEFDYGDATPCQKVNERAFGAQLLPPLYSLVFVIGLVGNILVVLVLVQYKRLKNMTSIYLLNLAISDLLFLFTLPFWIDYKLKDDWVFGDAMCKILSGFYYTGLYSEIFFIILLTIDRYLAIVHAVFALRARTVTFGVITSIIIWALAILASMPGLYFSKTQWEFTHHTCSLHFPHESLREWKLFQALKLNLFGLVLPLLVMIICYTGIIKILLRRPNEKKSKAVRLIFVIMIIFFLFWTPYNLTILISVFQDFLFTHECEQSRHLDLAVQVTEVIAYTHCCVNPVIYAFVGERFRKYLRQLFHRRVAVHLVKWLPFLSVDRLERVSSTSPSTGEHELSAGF
Method: as §1

USP 7 (h) = USP 7 (h) (Homo sapiens, UniProt Q93009); assay: Epigenetic enzyme assay, Ubiquitin modifying enzymes; type: biochemical; conditions: 10 μM; read-out: % Inhibition of Control Values
USP 7 (h), sequence (Q93009 whole entry): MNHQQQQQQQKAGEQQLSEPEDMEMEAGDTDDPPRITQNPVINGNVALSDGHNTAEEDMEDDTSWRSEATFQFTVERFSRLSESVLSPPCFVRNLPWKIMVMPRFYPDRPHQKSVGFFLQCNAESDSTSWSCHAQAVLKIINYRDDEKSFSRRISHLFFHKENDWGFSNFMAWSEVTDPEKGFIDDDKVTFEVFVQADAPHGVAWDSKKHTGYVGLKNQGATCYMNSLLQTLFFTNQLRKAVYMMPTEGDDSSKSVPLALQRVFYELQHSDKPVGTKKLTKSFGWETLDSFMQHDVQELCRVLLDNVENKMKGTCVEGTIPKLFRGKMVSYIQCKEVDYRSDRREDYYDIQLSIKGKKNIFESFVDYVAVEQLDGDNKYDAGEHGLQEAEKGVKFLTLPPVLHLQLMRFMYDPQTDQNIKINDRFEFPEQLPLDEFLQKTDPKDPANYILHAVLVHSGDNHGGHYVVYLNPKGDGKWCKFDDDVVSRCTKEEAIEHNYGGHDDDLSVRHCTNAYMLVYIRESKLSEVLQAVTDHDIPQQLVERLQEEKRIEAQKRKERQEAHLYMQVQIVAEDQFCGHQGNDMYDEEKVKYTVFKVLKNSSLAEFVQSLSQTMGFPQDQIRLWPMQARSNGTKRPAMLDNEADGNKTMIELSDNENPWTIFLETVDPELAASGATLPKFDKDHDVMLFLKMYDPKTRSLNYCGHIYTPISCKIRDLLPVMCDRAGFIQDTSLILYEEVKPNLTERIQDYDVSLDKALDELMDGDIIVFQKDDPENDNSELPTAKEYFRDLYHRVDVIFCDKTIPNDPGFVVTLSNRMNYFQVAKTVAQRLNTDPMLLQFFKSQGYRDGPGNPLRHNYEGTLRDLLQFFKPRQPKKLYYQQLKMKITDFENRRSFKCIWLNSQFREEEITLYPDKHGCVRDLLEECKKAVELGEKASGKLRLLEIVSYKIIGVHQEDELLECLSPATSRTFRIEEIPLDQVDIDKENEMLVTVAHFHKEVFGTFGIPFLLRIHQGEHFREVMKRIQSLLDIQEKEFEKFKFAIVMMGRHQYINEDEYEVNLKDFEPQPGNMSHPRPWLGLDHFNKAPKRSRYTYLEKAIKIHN

HDAC7 (h) = molecular target: T4, HDAC7 (h) (Homo sapiens, UniProt Q8WUI4); assay: Epigenetic enzyme assay, Histone deacetylase (HDACs); type: biochemical; conditions: read-out: % Inhibition of Control Values
T4 sequence (Q8WUI4 1-952): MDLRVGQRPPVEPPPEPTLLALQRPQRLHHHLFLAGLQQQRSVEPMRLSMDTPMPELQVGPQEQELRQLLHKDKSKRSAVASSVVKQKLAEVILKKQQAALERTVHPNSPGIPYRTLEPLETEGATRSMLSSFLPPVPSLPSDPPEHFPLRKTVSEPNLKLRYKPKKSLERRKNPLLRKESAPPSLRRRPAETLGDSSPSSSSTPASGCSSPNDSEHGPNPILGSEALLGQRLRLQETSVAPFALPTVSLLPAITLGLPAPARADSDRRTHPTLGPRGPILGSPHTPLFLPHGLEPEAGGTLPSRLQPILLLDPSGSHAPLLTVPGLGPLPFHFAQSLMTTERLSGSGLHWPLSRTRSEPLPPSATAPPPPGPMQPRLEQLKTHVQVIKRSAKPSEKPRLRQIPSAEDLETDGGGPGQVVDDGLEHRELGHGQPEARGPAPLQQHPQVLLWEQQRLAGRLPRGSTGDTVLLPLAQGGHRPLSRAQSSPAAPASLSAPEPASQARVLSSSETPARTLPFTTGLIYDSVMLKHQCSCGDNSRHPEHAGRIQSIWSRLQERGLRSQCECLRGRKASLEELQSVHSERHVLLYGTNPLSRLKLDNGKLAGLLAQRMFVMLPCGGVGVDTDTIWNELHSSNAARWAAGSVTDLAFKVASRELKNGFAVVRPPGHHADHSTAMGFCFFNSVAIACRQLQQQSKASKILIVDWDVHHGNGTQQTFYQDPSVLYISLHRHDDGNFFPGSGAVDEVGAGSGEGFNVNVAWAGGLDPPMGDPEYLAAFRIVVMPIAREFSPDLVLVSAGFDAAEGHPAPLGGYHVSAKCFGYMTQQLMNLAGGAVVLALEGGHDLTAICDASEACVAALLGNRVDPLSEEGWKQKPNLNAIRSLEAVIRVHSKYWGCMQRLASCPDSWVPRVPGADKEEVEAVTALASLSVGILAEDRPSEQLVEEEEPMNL

PRMT4 (h) = molecular target: T5, PRMT4 (h) (Homo sapiens, UniProt Q86X55); assay: Epigenetic enzyme assay, Methyltransferases (MTs); type: biochemical; conditions: for inhibition at 10 µM: read-out: % Inhibition of Control Values; for IC50: Table 11, inhibition/concentration-response curve
T5 sequence (Q86X55 1-608): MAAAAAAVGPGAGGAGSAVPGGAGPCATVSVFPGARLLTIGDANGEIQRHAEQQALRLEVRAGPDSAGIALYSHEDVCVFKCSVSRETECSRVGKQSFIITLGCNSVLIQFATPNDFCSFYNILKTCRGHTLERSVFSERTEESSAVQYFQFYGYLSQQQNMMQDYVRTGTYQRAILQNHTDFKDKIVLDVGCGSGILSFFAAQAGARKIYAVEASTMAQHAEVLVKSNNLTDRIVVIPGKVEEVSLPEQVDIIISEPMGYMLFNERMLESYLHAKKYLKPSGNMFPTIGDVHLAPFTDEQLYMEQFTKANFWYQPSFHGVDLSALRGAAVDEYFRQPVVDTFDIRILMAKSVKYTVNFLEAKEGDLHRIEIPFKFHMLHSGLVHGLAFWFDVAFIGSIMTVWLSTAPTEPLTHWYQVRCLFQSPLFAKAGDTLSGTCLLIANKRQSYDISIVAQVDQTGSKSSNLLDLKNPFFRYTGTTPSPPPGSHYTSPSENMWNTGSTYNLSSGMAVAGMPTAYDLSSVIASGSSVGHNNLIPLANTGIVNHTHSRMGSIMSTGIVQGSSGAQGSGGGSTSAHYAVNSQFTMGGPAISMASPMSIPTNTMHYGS

[1] = assay year 2014, read-out: % Control Response
[2] = assay year 2015, read-out: % Control Response

Row | SMILES | % Cell growth (HL-60 leukemia cells) [%] | remaining activity at 10 µM (Histamine H4; [1]) [%] | remaining activity at 10 µM (Histamine H4; [2]) [%] | % Control Response (Monoamine Oxidase MAO-A; 10 μM, assay year 2015) | remaining activity at 10 µM (Monoamine Oxidase MAO-A; 10 μM, assay year 2015) [%] | IC50 (Monoamine Oxidase MAO-A; concentration-response 10 to 0.01 μM) | remaining activity at 10 µM (Chemokine CCR1) [%] | inhibition at 10 µM (USP 7 (h)) [%] | inhibition at 10 µM (HDAC7 (h)) [%] | inhibition at 10 µM (PRMT4 (h)) [%] | IC50 (PRMT4 (h)) [µM]
1 | CC(C)=CCC[C@H](CO)[C@@H]1CC[C@@H](C)c2c1cc(C)c(O)c2O [Compound 1, 7,8,18-trihydroxyserrulat-14-ene] | −62 | 50 | 12 | potent inhibitor | 91 | 6.47 µM and 6.74 µM | 33 | -18 | -111 | 90 | 4.7
2 | CC(C)=CCC[C@@H]1C(O)Oc2c(C)cc(O)c3c2[C@H]1CC[C@H]3C (some centres unmarked) [Compound 2, 5,18-epoxyserrulat-14-en-8,18-diol] | −35 | 16 | -1 | – | 34 | – | -3 | -14 | -6 | 84 | 5.4
3 | CC(C)=CCC[C@@H]1COc2c(C)cc(O)c3c2[C@H]1CC[C@H]3C [Compound 3, 5,18-epoxy-8-hydroxyserrulat-14-ene] | 138 | – | 10 | – | 27 | – | -5 | 9 | 16 | 77 | –
4 | CC(C)=CCC[C@H](C)[C@@H]1CC[C@@H](C)c2c1cc(C)c(O)c2O [Compound 4, 7,8-dihydroxyserrulat-14-ene] | −83 | – | – | – | – | – | – | – | – | – | 4.7
